US20170050957A1, “4-AMINO-6-(HETEROCYCLIC)PICOLINATES AND 6-AMINO-2-(HETEROCYCLIC)PYRIMIDINE-4-CARBOXYLATES AND THEIR USE AS HERBICIDES” (Dow AgroSciences LLC, priority 2013, published 2017)
Read-outs that look alike come from different tables or passages of the source.

Columns and labels:
[1] = test system: Key Broadleaf Weed and Crop Species; assay: Post-emergent Test II herbicidal activity (Table 15); assay type: in vivo; conditions: post-emergence, 336 h, 14 d; for pest or weed control at 35 g/ha: 35 g ai/ha; for pest or weed control at 70 g/ha: 70 g ai/ha; for pest or weed control at 140 g/ha: 140 g ai/ha
How it was run: (§1)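 Plants at first-second true leaf stage, grown 7-21 d in greenhouse (~15 h photoperiod, 23-29 °C day), were track-sprayed at 187 L/ha with compound in acetone/DMSO/water/isopropanol/crop oil/Triton X-155 at a high rate plus 1/2× to 1/16× dilutions. Injury scored visually after 14 d versus untreated plants, 0 (none) to 100% (complete kill).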

[2] = test system: Key Grass and Sedge Weeds as well as Grass Crops; assay: Post-emergent Test II herbicidal activity (Table 16); assay type: in vivo; conditions: post-emergence, 336 h, 14 d; for pest or weed control at 35 g/ha: 35 g ai/ha; for pest or weed control at 70 g/ha: 70 g ai/ha; for pest or weed control at 140 g/ha: 140 g ai/ha
How it was run: as §1

[3] = Abutilon theophrasti, velvetleaf (Abutilon theophrasti), read-out: Visual Growth Reduction (%) 14 Days After Application, ABUTH
[4] = Amaranthus retroflexus, redroot pigweed (Amaranthus retroflexus), read-out: Visual Growth Reduction (%) 14 Days After Application, AMARE
[5] = Brassica napus, oilseed rape, canola (Brassica napus), read-out: Visual Growth Reduction (%) 14 Days After Application, BRSNN
[6] = Chenopodium album, lambsquarters (Chenopodium album), read-out: Visual Growth Reduction (%) 14 Days After Application, CHEAL
[7] = Euphorbia heterophylla, wild poinsettia (Euphorbia heterophylla), read-out: Visual Growth Reduction (%) 14 Days After Application, EPHHL
[8] = Helianthus annuus, sunflower (Helianthus annuus), read-out: Visual Growth Reduction (%) 14 Days After Application, HELAN
[9] = Cyperus esculentus, yellow nutsedge (Cyperus esculentus), read-out: Visual Growth Reduction (%) 14 Days After Application, CYPES
[10] = Echinochloa crus-galli, barnyardgrass (Echinochloa crus-galli), read-out: Visual Growth Reduction (%) 14 Days After Application, ECHCG
[11] = Oryza sativa, rice (Oryza sativa), read-out: Visual Growth Reduction (%) 14 Days After Application, ORYSA
[12] = Setaria faberi, giant foxtail (Setaria faberi), read-out: Visual Growth Reduction (%) 14 Days After Application, SETFA
[13] = Triticum aestivum, wheat, spring (Triticum aestivum), read-out: Visual Growth Reduction (%) 14 Days After Application, TRZAS
[14] = Zea mays, maize, corn (Zea mays), read-out: Visual Growth Reduction (%) 14 Days After Application, ZEAMX

melting point [°C]	SMILES	pest or weed control at 35 g/ha [1, 3] [%]	pest or weed control at 70 g/ha [1, 3] [%]	pest or weed control at 140 g/ha [1, 3] [%]	pest or weed control at 35 g/ha [1, 4] [%]	pest or weed control at 70 g/ha [1, 4] [%]	pest or weed control at 140 g/ha [1, 4] [%]	pest or weed control at 35 g/ha [1, 5] [%]	pest or weed control at 70 g/ha [1, 5] [%]	pest or weed control at 140 g/ha [1, 5] [%]	pest or weed control at 35 g/ha [1, 6] [%]	pest or weed control at 70 g/ha [1, 6] [%]	pest or weed control at 140 g/ha [1, 6] [%]	pest or weed control at 35 g/ha [1, 7] [%]	pest or weed control at 70 g/ha [1, 7] [%]	pest or weed control at 140 g/ha [1, 7] [%]	pest or weed control at 35 g/ha [1, 8] [%]	pest or weed control at 70 g/ha [1, 8] [%]	pest or weed control at 140 g/ha [1, 8] [%]	pest or weed control at 35 g/ha [2, 9] [%]	other results
148	COC(=O)c1nc(-c2ccc3ccoc3c2F)cc(N)c1Cl [Compound 2.11]	95 to 100	95 to 100	95 to 100	95 to 100	95 to 100	95 to 100	75 to 84	85 to 94	95 to 100	95 to 100	95 to 100	95 to 100	95 to 100	95 to 100	95 to 100	45 to 59	60 to 74	75 to 84	0 to 29	pest or weed control at 70 g/ha [2, 9]: 0 to 29%; pest or weed control at 140 g/ha [2, 9]: 30 to 44%; pest or weed control at 35 g/ha [2, 10]: 85 to 94%; pest or weed control at 70 g/ha [2, 10]: 95 to 100%; pest or weed control at 140 g/ha [2, 10]: 95 to 100%; pest or weed control at 35 g/ha [2, 11]: 0 to 29%; pest or weed control at 70 g/ha [2, 11]: 0 to 29%; pest or weed control at 140 g/ha [2, 11]: 0 to 29%; pest or weed control at 35 g/ha [2, 12]: 45 to 59%; pest or weed control at 70 g/ha [2, 12]: 60 to 74%; pest or weed control at 140 g/ha [2, 12]: 75 to 84%; pest or weed control at 35 g/ha [2, 13]: 0 to 29%; pest or weed control at 70 g/ha [2, 13]: 0 to 29%; pest or weed control at 140 g/ha [2, 13]: 30 to 44%; pest or weed control at 35 g/ha [2, 14]: 45 to 59%; pest or weed control at 70 g/ha [2, 14]: 60 to 74%; pest or weed control at 140 g/ha [2, 14]: 85 to 94%
203 to 205	COC(=O)c1nc(-c2ccc3cc[nH]c3c2F)c(F)c(N)c1OC [Compound 1.20]	45 to 59	60 to 74	60 to 74	75 to 84	85 to 94	95 to 100	95 to 100	95 to 100	95 to 100	95 to 100	95 to 100	95 to 100	95 to 100	95 to 100	95 to 100	95 to 100	95 to 100	95 to 100	0 to 29	pest or weed control at 70 g/ha [2, 9]: 0 to 29%; pest or weed control at 140 g/ha [2, 9]: 0 to 29%; pest or weed control at 35 g/ha [2, 10]: 0 to 29%; pest or weed control at 70 g/ha [2, 10]: 60 to 74%; pest or weed control at 140 g/ha [2, 10]: 75 to 84%; pest or weed control at 35 g/ha [2, 11]: 0 to 29%; pest or weed control at 70 g/ha [2, 11]: 0 to 29%; pest or weed control at 140 g/ha [2, 11]: 0 to 29%; pest or weed control at 35 g/ha [2, 12]: 45 to 59%; pest or weed control at 70 g/ha [2, 12]: 75 to 84%; pest or weed control at 140 g/ha [2, 12]: 85 to 94%; pest or weed control at 35 g/ha [2, 13]: 0 to 29%; pest or weed control at 70 g/ha [2, 13]: 45 to 59%; pest or weed control at 140 g/ha [2, 13]: 60 to 74%; pest or weed control at 35 g/ha [2, 14]: 30 to 44%; pest or weed control at 70 g/ha [2, 14]: 45 to 59%; pest or weed control at 140 g/ha [2, 14]: 60 to 74%
165 to 167	Nc1c(F)c(-c2ccc3occc3c2)nc(C(=O)O)c1Cl [Compound 2.02]	45 to 59	85 to 94	85 to 94	75 to 84	95 to 100	95 to 100	0 to 29	30 to 44	30 to 44	95 to 100	95 to 100	95 to 100	75 to 84	95 to 100	95 to 100	75 to 84	85 to 94	95 to 100	0 to 29	pest or weed control at 70 g/ha [2, 9]: 0 to 29%; pest or weed control at 140 g/ha [2, 9]: 0 to 29%; pest or weed control at 35 g/ha [2, 10]: 85 to 94%; pest or weed control at 70 g/ha [2, 10]: 85 to 94%; pest or weed control at 140 g/ha [2, 10]: 95 to 100%; pest or weed control at 35 g/ha [2, 11]: 0 to 29%; pest or weed control at 70 g/ha [2, 11]: 0 to 29%; pest or weed control at 140 g/ha [2, 11]: 0 to 29%; pest or weed control at 35 g/ha [2, 12]: 60 to 74%; pest or weed control at 70 g/ha [2, 12]: 60 to 74%; pest or weed control at 140 g/ha [2, 12]: 75 to 84%; pest or weed control at 35 g/ha [2, 13]: 0 to 29%; pest or weed control at 70 g/ha [2, 13]: 30 to 44%; pest or weed control at 140 g/ha [2, 13]: 45 to 59%; pest or weed control at 35 g/ha [2, 14]: 95 to 100%; pest or weed control at 70 g/ha [2, 14]: 95 to 100%; pest or weed control at 140 g/ha [2, 14]: 95 to 100%
